Data reported in patent US9067857B2, “Fluorine-containing aromatic compound and manufacturing method therefor” (Asahi Glass Company, Limited, priority 2012, dated 2015).

Experiment: Solubility test of compound in various solvents (20 mg in 10 g solvent, visually judged)
Format: physicochemical
Settings: 20 mg sample in 10 g solvent at room temperature (0.2% by mass)
Method: <Solubility Test of Compound>
In order to investigate applicability of the compound (e) obtained in the above Example 4 to a wet process, a solubility test of the compound in various solvents was conducted. In addition, a solubility test of anthracene was also conducted as Reference Example 2.
Specifically, 20 mg of a sample was weighed and it was visually judged whether it dissolves in 10 g of a solvent at room temperature (0.2% by mass).
In Table 3, “Yes” represents “soluble” and “No” represents “insoluble”.

## FC(F)(F)C(F)(F)C(F)(F)C(F)(F)C(F)(F)C(F)(F)c1c2ccccc2c(C(F)(F)C(F)(F)C(F)(F)C(F)(F)C(F)(F)C(F)(F)F)c2ccccc12 [Compound (e), 9,10-bis(perfluorohexyl)anthracene]
  Solubility in 1,2-Dichlorobenzene: Yes (“Yes” represents “soluble”)
  Solubility in Chloroform: Yes (“Yes” represents “soluble”)
  Solubility in Cyclohexane: Yes (“Yes” represents “soluble”)
  Solubility in Hexane: Yes (“Yes” represents “soluble”)

## c1ccc2cc3ccccc3cc2c1 [Anthracene, anthracene]
  Solubility in 1,2-Dichlorobenzene: Yes (“Yes” represents “soluble”)
  Solubility in Chloroform: Yes (“Yes” represents “soluble”)
  Solubility in Cyclohexane: No (“No” represents “insoluble”)
  Solubility in Hexane: No (“No” represents “insoluble”)
